The values below come from ChEMBL document CHEMBL1201862, “PubChem BioAssay data set” (2004).

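Results reflect a 48-hour exposure of cells in 96-well plates to compound at five concentrations. GI50 marks 50% less growth.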 Activity calls are given as the source filed them. Rule as the data show it: active = GI50 up to about 1.1 µM and inactive = higher.

Test systems include UO-31; RXF 393; NCI-H460; SK-MEL-5; LOX IMVI; SN12C; SK-MEL-2; SR; SNB-75; Hs-578T; OVCAR-3; HL-60; SW-620; A549; MCF7; SF-539; EKVX; NCI/ADR-RES; 786-0; HCC 2998.
Holding throughout (assay): DTP human tumour cell line panel, 48 h

Regarding `COc1ccccc1C1c2cc3c(cc2OC2(OC)COC(=O)C12)OCO3` (stereo not given), the GI50 is 14.6 µM (inactive) in the test on UO-31; 12.3 µM (inactive) in the test on RXF 393; 15.3 µM (inactive) in the test on NCI-H460; 7.19 µM (inactive) in the test with SK-MEL-5; 9.02 µM (inactive) in the test on LOX IMVI; 18.7 µM (inactive) in the test with SN12C. The GI50 in the test on SK-MEL-2 is 7.43 µM (inactive); in the test on SR, 3.8 µM (inactive); in the test with SNB-75, 7.16 µM (inactive); with Hs-578T, 5.83 µM (inactive); with OVCAR-3 it was 9.57 µM (inactive); in the test on HL-60, 3.03 µM (inactive). The GI50 in the test on SW-620 is 6.7 µM (inactive); in the test on A549, 17.4 µM (inactive); in the test on MCF7, 10.3 µM (inactive); with SF-539 it was 12.3 µM (inactive); with EKVX, 24.7 µM (inactive); in the test with NCI/ADR-RES, 6.55 µM (inactive). The GI50 is 19.1 µM (inactive) in the test on 786-0 and 14.9 µM (inactive) with HCC 2998.
For the molecule `CC(C)S(=O)(=O)ON1C(=O)c2ccc(N(C)C)cc2C1=O`, the GI50 is 18.2 µM (inactive) in the test on UO-31; 13.2 µM (inactive) in the test with RXF 393; 19.9 µM (inactive) in the test on NCI-H460; 3.96 µM (inactive) in the test with SK-MEL-5; 13.2 µM (inactive) with LOX IMVI; 16.9 µM (inactive) with SN12C. In addition, the GI50 in the test on SK-MEL-2 was 4.01 µM (inactive); with SR, 2.38 µM (inactive); in the test with SNB-75 it was 19.6 µM (inactive); in the test with Hs-578T it was > 10 µM (inactive); with OVCAR-3 it was 8.91 µM (inactive); in the test with HL-60, 3.41 µM (inactive). Also, the GI50 with SW-620 was 11.4 µM (inactive); in the test with A549, 25 µM (inactive); in the test with MCF7, 5.93 µM (inactive); in the test on SF-539, 19 µM (inactive); with EKVX it was 22.3 µM (inactive); in the test on NCI/ADR-RES, 5.4 µM (inactive). The values for the GI50 in the test with 786-0 and in the test on HCC 2998 were 4.66 µM (inactive) and 13.3 µM (inactive), respectively.
In the case of `O=C1c2ccccc2-c2c1c1ccccc1c(=O)n2-c1ccccc1`, the GI50 was 5.64 µM (inactive) in the test with UO-31; 4.59 µM (inactive) with RXF 393; 6.56 µM (inactive) with NCI-H460; 9.66 µM (inactive) in the test on SK-MEL-5; 68.5 µM (inactive) in the test with LOX IMVI; 16.4 µM (inactive) with SN12C. The GI50 in the test on SK-MEL-2 was 20.4 µM (inactive); with SR, > 100 µM (inactive); with SNB-75, 13.1 µM (inactive); in the test with Hs-578T, 8.36 µM (inactive); in the test on OVCAR-3 it was 14.4 µM (inactive); in the test on HL-60, > 33 µM (inactive). The GI50 in the test on SW-620 is 35.4 µM (inactive); in the test with A549 it was 13.1 µM (inactive); in the test with MCF7, 19.3 µM (inactive); in the test with SF-539, 4.91 µM (inactive); with EKVX it was 23.3 µM (inactive); in the test on NCI/ADR-RES, 5.48 µM (inactive). Moreover, the GI50 in the test with 786-0 was 3.07 µM (inactive); in the test with HCC 2998 it was 66.4 µM (inactive).
Take `[N-]=[N+]=C(C(=O)N1CCCC1=O)S(=O)(=O)c1ccccc1`: the GI50 in the test on UO-31 is > 100 µM (inactive); in the test with RXF 393, 70.6 µM (inactive); in the test on NCI-H460 it was 39 µM (inactive); in the test on SK-MEL-5, 98.9 µM (inactive); in the test with LOX IMVI, 42.9 µM (inactive); with SN12C, > 100 µM (inactive). The GI50 in the test on SK-MEL-2 was 62.5 µM (inactive); in the test with SR it was 87.7 µM (inactive); with SNB-75, 87.7 µM (inactive); in the test with Hs-578T it was 29.4 µM (inactive); with OVCAR-3, 76 µM (inactive); in the test on HL-60, 55.1 µM (inactive). The GI50 with SW-620 is > 100 µM (inactive); in the test on A549, > 100 µM (inactive); in the test with MCF7, 32.7 µM (inactive); in the test with SF-539 it was 98.6 µM (inactive); in the test on EKVX, > 100 µM (inactive); with NCI/ADR-RES, > 100 µM (inactive). In addition, the GI50 with 786-0 is 97.9 µM (inactive); in the test on HCC 2998, > 100 µM (inactive).
For `N=c1ccn2c(n1)OC1C(OP(=O)(O)O)C(CO)OC12` (stereo not given), the GI50 in the test on UO-31 was 7.64 µM (inactive); in the test with RXF 393 it was > 100 µM (inactive); in the test with NCI-H460, 0.53 µM (active); with SK-MEL-5, 55.1 µM (inactive); in the test on LOX IMVI, 4.52 µM (inactive); in the test on SN12C it was 20.2 µM (inactive). Further, the GI50 in the test with SK-MEL-2 was > 100 µM (inactive); in the test on SR, 3.12 µM (inactive); in the test on SNB-75, > 88.3 µM (inactive); in the test with Hs-578T, > 100 µM (inactive); in the test with OVCAR-3, > 71.3 µM (inactive); in the test with HL-60 it was 0.597 µM (active). The GI50 in the test with SW-620 was > 47.2 µM (inactive); in the test with A549, 0.575 µM (active); with MCF7, 1.18 µM (inactive); in the test on SF-539, 41.1 µM (inactive); with EKVX, > 100 µM (inactive); with NCI/ADR-RES it was 22.5 µM (inactive). Also, the GI50 with 786-0 is 9.77 µM (inactive); in the test on HCC 2998 it was 11 µM (inactive).
Regarding `COC(=O)c1ccccc1CC1Cc2cc3c(cc2C1=O)CCC3` (stereo not given), the GI50 with UO-31 is 22.3 µM (inactive); in the test with RXF 393 it was 2.56 µM (inactive); in the test with NCI-H460 it was 29.7 µM (inactive); in the test on SK-MEL-5 it was 7.83 µM (inactive); with LOX IMVI it was 7.31 µM (inactive); in the test on SN12C, 11.5 µM (inactive). In addition, the GI50 was 7.87 µM (inactive) in the test with SK-MEL-2; 4.06 µM (inactive) with SR; 11.4 µM (inactive) in the test with SNB-75; 19.6 µM (inactive) in the test on Hs-578T; 13.1 µM (inactive) with OVCAR-3; 3.83 µM (inactive) in the test with HL-60. The GI50 is 3.82 µM (inactive) in the test on SW-620; 20.3 µM (inactive) with A549; 14.6 µM (inactive) in the test on MCF7; 16.8 µM (inactive) in the test on SF-539; 25.8 µM (inactive) in the test on EKVX; 3.05 µM (inactive) with NCI/ADR-RES. The GI50 was 16.6 µM (inactive) in the test with 786-0 and > 41.1 µM (inactive) in the test with HCC 2998.
For the molecule `O=S(=O)(NNc1ccccc1)c1ccccc1`, the GI50 with UO-31 is 10.6 µM (inactive); with RXF 393, 7.73 µM (inactive); with NCI-H460 it was 3.96 µM (inactive); in the test with SK-MEL-5, 2.1 µM (inactive); in the test with LOX IMVI, 0.834 µM (active); in the test with SN12C it was 4.49 µM (inactive). In addition, the GI50 in the test with SK-MEL-2 was 3.26 µM (inactive); with SR, 11.2 µM (inactive); with SNB-75, 40 µM (inactive); in the test on Hs-578T, 61 µM (inactive); in the test with OVCAR-3 it was 11.3 µM (inactive); in the test with HL-60, 1.66 µM (inactive). Moreover, the GI50 in the test on SW-620 was 26.3 µM (inactive); with A549, 8.87 µM (inactive); with MCF7, 14.9 µM (inactive); with SF-539, 32.7 µM (inactive); in the test with EKVX it was 14.4 µM (inactive); in the test with NCI/ADR-RES, 10 µM (inactive). For the same molecule, the GI50 in the test with 786-0 was 52.6 µM (inactive); in the test with HCC 2998, 0.902 µM (active).
